# Target: SUV420H1 enzyme (Homo sapiens, UniProt Q4FZB7)
# Test: TR-FRET SAH SUV420H1 enzyme inhibition assay
# Format: biochemical
# Details: Histone Peptide H4(8-30)me1 and SAM, overnight at room temp, TR-FRET detection of SAH, read-out: TR-FRET SAH_SUV420H1 IC50
# In short: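 SUV420H1 (90 nM) preincubated 30 min with compound (3-fold dilutions, 50 to 0.00075 μM), then H4(8-30)me1 peptide 5 nM and SAM 4 nM added, overnight at room temp. SAH product detected by TR-FRET with Tb anti-SAH antibody and Oregon Green-SAH in RIPA buffer, 4 h; IC50 from Hill fit, asymptotes fixed 0-100%.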
# Sequence of SUV420H1 enzyme (Q4FZB7 whole entry): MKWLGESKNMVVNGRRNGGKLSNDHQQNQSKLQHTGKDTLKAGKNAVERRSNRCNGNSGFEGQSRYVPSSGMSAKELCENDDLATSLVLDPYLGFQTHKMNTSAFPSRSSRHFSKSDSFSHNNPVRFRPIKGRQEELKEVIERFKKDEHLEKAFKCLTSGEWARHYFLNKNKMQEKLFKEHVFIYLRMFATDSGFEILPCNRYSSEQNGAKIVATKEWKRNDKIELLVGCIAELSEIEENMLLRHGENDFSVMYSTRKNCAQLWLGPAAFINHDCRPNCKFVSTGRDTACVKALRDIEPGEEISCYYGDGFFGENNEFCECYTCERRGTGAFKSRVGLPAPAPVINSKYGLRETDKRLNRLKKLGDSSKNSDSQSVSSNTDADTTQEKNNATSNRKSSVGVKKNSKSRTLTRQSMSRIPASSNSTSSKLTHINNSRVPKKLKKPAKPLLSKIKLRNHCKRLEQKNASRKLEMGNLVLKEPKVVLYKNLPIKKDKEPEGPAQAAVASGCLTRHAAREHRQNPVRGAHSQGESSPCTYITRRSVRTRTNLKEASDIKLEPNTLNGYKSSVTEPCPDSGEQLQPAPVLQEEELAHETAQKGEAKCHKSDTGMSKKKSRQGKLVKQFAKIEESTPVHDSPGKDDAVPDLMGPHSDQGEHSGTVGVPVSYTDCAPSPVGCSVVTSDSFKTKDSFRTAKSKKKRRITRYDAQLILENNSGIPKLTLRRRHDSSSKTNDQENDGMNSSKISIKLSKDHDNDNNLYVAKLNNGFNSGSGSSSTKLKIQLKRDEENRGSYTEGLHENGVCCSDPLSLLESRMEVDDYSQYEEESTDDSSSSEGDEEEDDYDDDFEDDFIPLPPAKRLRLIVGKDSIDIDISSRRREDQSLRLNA
row,Compound,IC50
1,"CC(=O)N1CC=C(c2cc(Cn3cnc4c(N)ncnc43)c3[nH]c(CNC(=O)c4cc(C)nnc4C)cc3c2)CC1 [Example 237, N-({5-(1-acetyl-1,2,3,6-tetrahydropyridin-4-yl)-7-[(6-amino-9H-purin-9-yl)methyl]-1H-indol-2-yl}methyl)-3,6-dimethylpyridazine-4-carboxamide]",28.8 nM
2,CC(=O)N1CCC=C(c2cc(Cn3cnc4c(N)ncnc43)c3[nH]c(CNC(=O)c4cc(C)nnc4C)cc3c2)C1 [Example 238],45.7 nM
3,"Cc1cc(C(=O)NCc2cc3c(Cl)ccc(Cn4cnc5c(N)ncnc54)c3[nH]2)c(C)nn1 [Example 239, N-({7-[(6-amino-9H-purin-9-yl)methyl]-4-chloro-1H-indol-2-yl}methyl)-3,6-dimethylpyridazine-4-carboxamide]",54.7 nM
4,"N#Cc1ccc(C(=O)NCc2cc3cc(Cl)cc(Cn4cnc5c(N)ncnc54)c3[nH]2)cn1 [Example 240, N-({7-[(6-amino-9H-purin-9-yl)methyl]-5-choro-1H-indol-2-yl}methyl)-6-cyanopyridine-3-carboxamide]",164 nM
5,"Cc1ccc(CNCc2cc3cc(Cl)cc(Cn4cnc5c(N)ncnc54)c3[nH]2)cc1 [Example 241, 9-[(5-chloro-2-{[(4-methylbenzyl)amino]methyl}-1H-indol-7-yl)methyl]-9H-purin-6-amine]",3630 nM
6,"Cc1ccccc1CNCc1cc2cc(Cl)cc(Cn3cnc4c(N)ncnc43)c2[nH]1 [Example 242, 9-[(5-chloro-2-{[(2-methylbenzyl)amino]methyl}-1H-indol-7-yl)methyl]-9H-purin-6-amine]",2640 nM
7,Cc1cccc(Cl)c1CNCc1cc2cc(Cl)cc(Cn3cnc4c(N)ncnc43)c2[nH]1 [Example 243],5460 nM
8,"Cc1cccc(F)c1CNCc1cc2cc(Cl)cc(Cn3cnc4c(N)ncnc43)c2[nH]1 [Example 244, 9-[(5-chloro-2-{[(2-fluoro-6-methylbenzyl)amino]methyl}-1H-indol-7-yl)methyl]-9H-purin-6-amine]",1940 nM
9,"Cc1cccc(CNCc2cc3cc(Cl)cc(Cn4cnc5c(N)ncnc54)c3[nH]2)c1F [Example 245, 9-[(5-chloro-2-{[(2-fluoro-3-methylbenzyl)amino]methyl}-1H-indol-7-yl)methyl]-9H-purin-6-amine]",2030 nM
10,"Cc1ccc(C(=O)NCc2cc3cc(Cl)cc(Cn4cnc5c(N)ncnc54)c3[nH]2)cc1 [Example 246, N-({7-[(6-amino-9H-purin-9-yl)methyl]-5-chloro-1H-indol-2-yl}methyl)-4-methylbenzamide]",7290 nM
11,"Cc1cccc(C(=O)NCc2cc3cc(Cl)cc(Cn4cnc5c(N)ncnc54)c3[nH]2)c1 [Example 247, N-({7-[(6-amino-9H-purin-9-yl)methyl]-5-chloro-1H-indol-2-yl}methyl)-3-methylbenzamide]",9380 nM
12,"Cc1ccccc1C(=O)NCc1cc2cc(Cl)cc(Cn3cnc4c(N)ncnc43)c2[nH]1 [Example 248, N-({7-[(6-amino-9H-purin-9-yl)methyl]-5-chloro-1H-indol-2-yl}methyl)-2-methylbenzamide]",571 nM
13,"COc1cccc(CNCc2cc3cc(Cl)cc(Cn4cnc5c(N)ncnc54)c3[nH]2)c1 [Example 249, 9-[(5-chloro-2-{[(3-methoxybenzyl)amino]methyl}-1H-indol-7-yl)methyl]-9H-purin-6-amine]",3310 nM
14,"COc1ccccc1CNCc1cc2cc(Cl)cc(Cn3cnc4c(N)ncnc43)c2[nH]1 [Example 250, 9-[(5-chloro-2-{[(2-methoxybenzyl)amino]methyl}-1H-indol-7-yl)methyl]-9H-purin-6-amine]",4440 nM
15,"Nc1ncnc2c1ncn2Cc1cc(Cl)cc2cc(CNC(=O)Cc3ccc(Cl)cc3)[nH]c12 [Example 251, N-({7-[(6-amino-9H-purin-9-yl)methyl]-5-chloro-1H-indol-2-yl}methyl)-2-(4-chlorophenyl)acetamide]",> 50000 nM

# Source: patent US9932340B2, “Substituted indoles” (AbbVie Inc., priority 2014, dated 2018)
